Assay results from patent US8293909B2, “Compounds for the treatment of hepatitis C” (Bristol-Myers Squibb Company, priority 2008, dated 2012).

Legend:
HCV = details: cited from earlier work
[1] = system: HCV replicon in HUH-7 cells; experiment: HCV replicon luciferase reporter assay, 384 well plate protocol; assay type: cell-based; details: Hepatitis C virus, Table 2
Description: (§1) The HCV replicon luciferase assay was developed to monitor the inhibitory effects of compounds described in the disclosure on HCV viral replication. Utilization of a replicon luciferase reporter assay was first described by Krieger et al (Krieger N, Lohmann V, and Bartenschlager R, J. Virol. 75(10):4614-4624 (2001)). HUH-7 cells, constitutively expressing the HCV replicon, were grown in Dulbecco's Modified Eagle Media (DMEM) (Gibco-BRL) containing 10% Fetal calf serum (FCS) (Sigma) and 1 mg/ml G418 (Gibco-BRL). Compounds were serially diluted 3 folds in DMSO for a twenty-point titration and subsequently transferred to sterile 384-well tissue-culture treated plates (Corning cat #3571). The plates were then seeded with 50 μl of cells at a density of 3.0×10^3 cells/well in DMEM containing 4% FCS (final DMSO concentration at 0.5%). After 3 days incubation at 37° C., cells were analyzed for Renilla Luciferase activity using the EnduRen as substrate (Promega cat #E6485). The EnduRen substrate was diluted in DMEM and then added to the plates to a final concentration of 7.5 μM. The plates were incubated for 2 hrs at 37° C. and then read immediately for 30 seconds with Viewlux Imager (PerkinElmer) using a luminescence program. To assess cytotoxicity of compounds, CC50 values were generated by multiplexing the EnduRen-containing plates with Cell Titer-Blue (Promega, cat #G8082). 3 μl of Cell-Titer Blue was added to each well and incubated for 8 hrs at 37° C. The fluorescence signal from each well was read, with an excitation wavelength at 525/10 nm and an emission wavelength of 598/10 nm, using the Viewlux Imager.

[2] = molecular target: T1, HCV NS5B RdRp genotype 1b (Hepatitis C virus genotype 1b, UniProt Q9WMX2); experiment: HCV NS5B RdRp enzyme assay (standard / modified); assay type: biochemical; details: HCV NS5B genotype 1b
T1 construct: The protein was expressed with an 18 amino acid C-terminal truncation to enhance the solubility; made in house; host or cells: E. coli BL21(DE3), pET21a vector
Procedure, shortened: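 Genotype 1b NS5B with an 18-aa C-terminal truncation, expressed in E. coli, was tested by SPA incorporation of 3H-UTP (0.29 μM) on polyA/biotin-oligo-dT12. Standard assay: 28 nM enzyme, 6 nM template, 180 nM primer, 60 min at 30 °C, pH 7.5, 2% DMSO. Modified assay: 14 nM enzyme added to compound first, 0.2 nM template, 20 nM bead-precaptured primer, 4 h at 30 °C. IC50 used seven inhibitor concentrations.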

1 a replicon = experiment: HCV replicon luciferase reporter assay, 384 plate protocol, 1a replicon; assay type: cell-based; details: Hepatitis C virus; Table 1; *384 plate protocol and a 1 a replicon
Description: as §1, with “To assess cytotoxicity of compounds, CC50 values were generated by multiplexing the EnduRen-containing plates with Cell Titer-Blue (Promega, cat #G8082). 3 μl of Cell-Titer Blue was added to each well and incubated for 8 hrs at 37° C.” left out

HCV replicon cells = experiment: HCV replicon assay (FRET or luciferase readout); assay type: cell-based; details: Hepatitis C virus
Procedure, shortened: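 Percent activity is background-subtracted signal relative to untreated cell wells, with background taken from maximal protease-inhibitor wells. Cytotoxicity is Alamar blue fluorescence relative to controls. Replicon inhibition was read by NS3 FRET peptide cleavage (340/490 nm) or luciferase.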

T1 sequence (Q9WMX2 2420-2992): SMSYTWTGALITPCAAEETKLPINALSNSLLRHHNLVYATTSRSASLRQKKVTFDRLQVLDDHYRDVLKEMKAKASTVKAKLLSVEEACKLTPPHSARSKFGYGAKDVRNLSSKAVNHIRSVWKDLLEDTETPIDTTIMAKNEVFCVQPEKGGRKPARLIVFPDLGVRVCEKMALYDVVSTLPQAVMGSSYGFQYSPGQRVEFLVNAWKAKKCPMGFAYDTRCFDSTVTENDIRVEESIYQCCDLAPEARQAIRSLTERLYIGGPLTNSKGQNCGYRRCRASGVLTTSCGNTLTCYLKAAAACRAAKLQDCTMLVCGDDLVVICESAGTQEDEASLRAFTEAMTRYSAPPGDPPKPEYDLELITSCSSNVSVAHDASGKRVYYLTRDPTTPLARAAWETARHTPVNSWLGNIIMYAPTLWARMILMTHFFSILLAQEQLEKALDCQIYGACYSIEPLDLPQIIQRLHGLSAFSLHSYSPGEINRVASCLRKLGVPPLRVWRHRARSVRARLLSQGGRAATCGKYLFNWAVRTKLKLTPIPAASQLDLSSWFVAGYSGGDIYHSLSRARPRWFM

Molecule: pegylated alpha-interferon
- clinical efficacy compared with unmodified alpha-interferon (HCV; monotherapy): superior to unmodified alpha-interferon as monotherapy

Molecule: CNC(=O)c1c(-c2ccc(F)cc2)oc2cc(N(CCO)S(C)(=O)=O)c(C3CC3)cc12 [HCV-796]
- hepatic toxicity (HCV; extended dosing of the combination regimens with interferon and ribavirin): hepatic toxicity observed during extended dosing of the combination regimens
- HCV RNA levels in patients (HCV; patients): showed an ability to reduce HCV RNA levels in patients

Molecule: alpha-interferon and ribavirin
- sustained efficacy (HCV; combination therapy): 40 % of patients

Molecule: CNC(=O)c1c(-c2ccc(F)cc2)oc2ncc(-c3cc(C(=O)NC4(c5ccccn5)CC4)ccc3Cl)cc12 [drawing 187]
- EC50 [1]: 1.5 nM

Molecule: CNC(=O)c1c(-c2ccc(F)cc2)nn2ccc(-c3cc(C(=O)NC4(c5ccccc5)CC4)ccc3C)c(F)c12 [drawing 185]
- EC50 [1]: 0.85 nM

Molecule: CNC(=O)c1c(-c2ccc(F)cc2)oc2ncc(-c3cc(C(=O)NC4(c5ccccn5)CC4)ccc3C)cc12 [drawing 186]
- IC50 ([2]; Table 2): 4.65 nM
- EC50 [1]: 2.04 nM

Molecule: CNC(=O)c1c(-c2ccc(F)cc2)nc2ccc(-c3cc(C(=O)NC4(c5ccccn5)CC4)c(OC)cc3Cl)cn12 [drawing 164]
- EC50 (1 a replicon): 2 to 250 nM

Molecule: CNC(=O)c1c(-c2ccc(F)cc2)nc2ccc(-c3ccc(-c4ccccc4Cl)c(C(=O)NCC(C)C)c3)cn12 [drawing 163]
- EC50 (1 a replicon): 250 to 1000 nM

Molecule: CNC(=O)c1c(-c2ccc(F)cc2)nn2ccc(-c3cc(C(=O)NC4(c5cc(C)on5)CC4)c(OC)cc3C)c(F)c12
- IC50 ([2]; Table 1): 2 to 250 nM
- EC50 (HCV replicon cells; Table 1): 2 to 250 nM

Molecule: CNC(=O)c1c(-c2ccc(F)cc2)nn2ccc(-c3cc(C(=O)NC4(C5CCCCC5)CC4)c(OC)cc3C)c(F)c12
- IC50 ([2]; Table 1): 2 to 250 nM
- EC50 (HCV replicon cells; Table 1): 2 to 250 nM

Molecule: CNC(=O)c1c(-c2ccccc2)nn2cc(N3CCCCS3(=O)=O)ccc12
- IC50 ([2]; Table 1): > 10000 nM
- EC50 (HCV replicon cells; Table 1): > 10000 nM

Molecule: CNC(=O)c1c(-c2ccc(F)cc2)nn2ccc(-c3cc(C(=O)NC4(c5cccc(F)c5)CC4)c(OC)cc3C)c(F)c12
- IC50 ([2]; Table 1): 2 to 250 nM
- EC50 (HCV replicon cells; Table 1): 2 to 250 nM

Molecule: CNC(=O)c1c(-c2ccc(F)cc2)nn2ccc(-c3cc(C(=O)NC4(c5ccccc5)CC4)ccc3C)c(F)c12 [drawing 127]
- IC50 ([2]; Table 1): 2 to 250 nM
- EC50 (HCV replicon cells; Table 1): 2 to 250 nM

Molecule: CNC(=O)c1c(-c2ccc(F)cc2)oc2ncc(-c3cc(C(=O)NC4(c5ccccn5)CC4)ccc3Cl)cc12 [drawing 113]
- IC50 ([2]; Table 1): 2 to 250 nM
- EC50 (HCV replicon cells; Table 1): 2 to 250 nM

Molecule: CNC(=O)c1c(-c2ccc(F)cc2)nn2cc(-c3cccc(OC)c3)ccc12
- IC50 ([2]; Table 1): > 10000 nM
- EC50 (HCV replicon cells; Table 1): > 10000 nM

Molecule: CNC(=O)c1c(-c2ccc(F)cc2)nn2ccc(-c3cc(C(=O)NC4(c5ccc(F)cc5)CC4)ccc3C)cc12
- IC50 ([2]; Table 1): 2 to 250 nM
- EC50 (HCV replicon cells; Table 1): 2 to 250 nM

Molecule: CNC(=O)c1c(-c2ccc(F)cc2)sc2ccc(-c3cccc(C(=O)NC(C)(C)C)c3)cc12 [drawing 183]
- IC50 ([2]; Table 2): > 4170 nM
- EC50 (HCV replicon cells; Table 2): 1860 nM
